The source of these data is patent US8394362B2, “Gem difluorinated C-glycopeptides, their preparation and their use for the preservation of biological materials and/or in cryosugery” (priority 2004, dated 2013).

One assay concerns HEK 293 cells. Put plainly: Preservation of HEK 293 kidney cells at low temperatures (Trypan blue cell count). Format: cell-based. As to the method:
The cells were then diluted to 75,000 cells/mL. Subsequently they were distributed over 6 plates with six 3 mL-wells per plate. This concentration is a good compromise between a concentration sufficiently low to prevent cell death by autocytotoxicity and sufficiently high to permit cell sampling and counting without any pre-concentration likely to reduce their survival. Each plate had two control wells not containing product 15, two wells with concentrations of product 15 adjusted to 0.01 mg/mL, and two others with 0.1 mg/mL. Each plate was then incubated at the following temperatures: 4° C., 2° C., 0° C., −2° C., −4° C., and −20° C. Each well was subsequently sampled at the following incubation times: 2, 8, and 22 hours.

The test system of the next assay is embryonic fibroblasts. As to conditions: 15 mg/mL; 1 mM H2O2; 37° C.; after 10 hours; serum-free medium with 0.5 mM EDTA.

As to `C[C@H](NC(=O)[C@H](C)NC(=O)[C@@H](N)CCCCNC(=O)C(F)(F)C1(O)O[C@H](CO)[C@H](O)[C@H](O)[C@H]1O)C(=O)O` (some centres unmarked) [product 15], the “cell survival compared with negative control” value with HEK 293 cells (0.01 mg/mL) is on record as “does not appear to improve cell survival”. Besides, the “cell survival rate compared with negative control” value in the assay on HEK 293 cells (0.10 mg/mL, five of six temperatures (4, 2, 0, −2, −4, −20° C.), 2, 8, 22 h) is recorded as “led to the best cell survival rates even if the improvement remained low”. Also, in the assay with HEK 293 cells (−20° C., after two hours), the “cell appearance and Trypan blue uptake after thawing” value was “maintained the appearance of spherical retractile cells and did not absorb Trypan blue”. In addition, the “cells remaining after re-incubation” value in the assay on HEK 293 cells (−20° C., eight hours' incubation, both concentrations (0.01 and 0.1 mg/mL)) was “complete disappearance of all cells”. For the same molecule, in the assay with embryonic fibroblasts, the survival result was “approximately 80%”.
